Values quoted from earlier work as cited in patent US6511993B1, “Metalloprotease inhibitors” (priority 1999, dated 2003).

Tested on: human ovarian carcinoma xenografts
Settings: mice carrying human ovarian carcinoma xenografts; Cancer Res., 1993, 53, 2087; cited from earlier work

With `CNC(=O)[C@H](Cc1ccccc1)NC(=O)[C@H](CC(C)C)[C@H](CSc1cccs1)C(=O)NO` [BB-94] as the compound, how does the survival read?
Its survival is “prolong the survival”.

And the tumour burden?
The tumour burden was “decrease the tumour burden”.
